Test results from PubChem BioAssay AID1963826 (Molecular Pharmacology Branch, DTP, NCI, 2024).

Test system: 926638-142-R-J1-PDC complex spheroid viability
Test: Anticancer human tumor 926638-142-R-J1-PDC patient-derived endometrial carcinoma cell line growth inhibition [POLQ]
Conditions: for IC50: curve of first compound; for viability, T/C: stronger effect = lower value
Summary of the method: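 Growth inhibition in 3D: complex spheroids (tumor PDC, HUVEC, MSC) treated with POLQ inhibitor combinations; where Cmax unknown, highest tested concentration 10 microM, except SN-38 at 1 microM.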

[1] = second compound 0.0316 µM, first compound 0.0316 µM
[2] = second compound 0.0316 µM, first compound 0.1 µM
[3] = second compound 0.0316 µM, first compound 0.316 µM
[4] = second compound 0.0316 µM, first compound 1 µM
[5] = second compound 0.0316 µM, first compound 3.16 µM
[6] = second compound 0.0316 µM, first compound 10 µM
[7] = second compound 0.1 µM, first compound 0.0316 µM
[8] = second compound 0.1 µM, first compound 0.1 µM
[9] = second compound 0.1 µM, first compound 0.316 µM
[10] = second compound 0.1 µM, first compound 1 µM
[11] = second compound 0.1 µM, first compound 3.16 µM
[12] = second compound 0.1 µM, first compound 10 µM
[13] = second compound 0.316 µM, first compound 0.0316 µM
[14] = second compound 0.316 µM, first compound 0.1 µM
[15] = second compound 0.316 µM, first compound 0.316 µM
[16] = second compound 0.316 µM, first compound 1 µM
[17] = second compound 0.316 µM, first compound 3.16 µM
[18] = second compound 0.316 µM, first compound 10 µM
[19] = second compound 1 µM, first compound 0.0316 µM
[20] = second compound 1 µM, first compound 0.1 µM
[21] = second compound 1 µM, first compound 0.316 µM
[22] = second compound 1 µM, first compound 1 µM
[23] = second compound 1 µM, first compound 3.16 µM
[24] = second compound 1 µM, first compound 10 µM
[25] = second compound 3.16 µM, first compound 0.0316 µM
[26] = second compound 3.16 µM, first compound 0.1 µM
[27] = second compound 3.16 µM, first compound 0.316 µM
[28] = second compound 3.16 µM, first compound 1 µM
[29] = second compound 3.16 µM, first compound 3.16 µM
[30] = second compound 3.16 µM, first compound 10 µM
[31] = second compound 10 µM, first compound 0.0316 µM
[32] = second compound 10 µM, first compound 0.1 µM
[33] = second compound 10 µM, first compound 0.316 µM
[34] = second compound 10 µM, first compound 1 µM
[35] = second compound 10 µM, first compound 3.16 µM
[36] = second compound 10 µM, first compound 10 µM
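Also: spheroids exposed to drugs for one week before readout.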
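For viability, T/C in this document: percent viability relative to DMSO vehicle control wells set as 100%.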

SMILES: COc1cc(C2c3cc4c(cc3C(OC3OC5COC(C)OC5C(O)C3O)C3COC(=O)C23)OCO4)cc(OC)c1O (stereo unspecified) + Cc1cccc(N(C)C(=O)C2C(O)CCN2c2nc(C)cc(C(F)(F)F)c2C#N)c1
- IC50 (second compound 0.0316 µM): > 10 µM
- IC50 (second compound 0.1 µM): > 10 µM
- IC50 (second compound 0.316 µM): > 10 µM
- IC50 (second compound 1 µM): > 10 µM
- IC50 (second compound 3.16 µM): > 10 µM
- IC50 (second compound 10 µM): > 10 µM
- viability, T/C [1]: 83.5%
- viability, T/C [2]: 62.5%
- viability, T/C [3]: 72%
- viability, T/C [4]: 73%
- viability, T/C [5]: 56%
- viability, T/C [6]: 60.1%
- viability, T/C [7]: 76.8%
- viability, T/C [8]: 71.4%
- viability, T/C [9]: 72.3%
- viability, T/C [10]: 62.7%
- viability, T/C [11]: 67.7%
- viability, T/C [12]: 56%
- viability, T/C [13]: 95.5%
- viability, T/C [14]: 84.1%
- viability, T/C [15]: 77%
- viability, T/C [16]: 57.6%
- viability, T/C [17]: 63.9%
- viability, T/C [18]: 49.1%
- viability, T/C [19]: 89.3%
- viability, T/C [20]: 80.8%
- viability, T/C [21]: 72.2%
- viability, T/C [22]: 77.9%
- viability, T/C [23]: 67.8%
- viability, T/C [24]: 61.3%
- viability, T/C [25]: 75.8%
- viability, T/C [26]: 71.8%
- viability, T/C [27]: 69.9%
- viability, T/C [28]: 79.3%
- viability, T/C [29]: 62.7%
- viability, T/C [30]: 50.2%
- viability, T/C [31]: 80.1%
- viability, T/C [32]: 83.9%
- viability, T/C [33]: 73.6%
- viability, T/C [34]: 70.9%
- viability, T/C [35]: 59%
- viability, T/C [36]: 60.6%

SMILES: Nc1ccn(C2OC(CO)C(O)C2(F)F)c(=O)n1 (stereo unspecified) + Cc1cccc(N(C)C(=O)C2C(O)CCN2c2nc(C)cc(C(F)(F)F)c2C#N)c1
- IC50 (second compound 0.0316 µM): 1.3 µM
- IC50 (second compound 0.1 µM): 1.73 µM
- IC50 (second compound 0.316 µM): 0.844 µM
- IC50 (second compound 1 µM): 0.624 µM
- IC50 (second compound 3.16 µM): 0.821 µM
- IC50 (second compound 10 µM): 0.535 µM
- viability, T/C [1]: 88.1%
- viability, T/C [2]: 66.7%
- viability, T/C [3]: 54.9%
- viability, T/C [4]: 62.1%
- viability, T/C [5]: 44.8%
- viability, T/C [6]: 20.9%
- viability, T/C [7]: 81.3%
- viability, T/C [8]: 68.9%
- viability, T/C [9]: 57.9%
- viability, T/C [10]: 62.2%
- viability, T/C [11]: 46%
- viability, T/C [12]: 22.8%
- viability, T/C [13]: 97.1%
- viability, T/C [14]: 64.6%
- viability, T/C [15]: 60.8%
- viability, T/C [16]: 51.4%
- viability, T/C [17]: 43.7%
- viability, T/C [18]: 26.2%
- viability, T/C [19]: 80.8%
- viability, T/C [20]: 62.1%
- viability, T/C [21]: 53.8%
- viability, T/C [22]: 46.5%
- viability, T/C [23]: 44.2%
- viability, T/C [24]: 22.4%
- viability, T/C [25]: 89.4%
- viability, T/C [26]: 63.6%
- viability, T/C [27]: 48.5%
- viability, T/C [28]: 60.4%
- viability, T/C [29]: 45.1%
- viability, T/C [30]: 28%
- viability, T/C [31]: 85.1%
- viability, T/C [32]: 70.5%
- viability, T/C [33]: 52%
- viability, T/C [34]: 44.5%
- viability, T/C [35]: 41.4%
- viability, T/C [36]: 32.5%

SMILES: O=c1[nH]cc(F)c(=O)[nH]1 + Cc1cccc(N(C)C(=O)C2C(O)CCN2c2nc(C)cc(C(F)(F)F)c2C#N)c1
- IC50 (second compound 0.0316 µM): > 10 µM
- IC50 (second compound 0.1 µM): > 10 µM
- IC50 (second compound 0.316 µM): > 10 µM
- IC50 (second compound 1 µM): > 10 µM
- IC50 (second compound 3.16 µM): > 10 µM
- IC50 (second compound 10 µM): > 10 µM
- viability, T/C [1]: 106%
- viability, T/C [2]: 98.6%
- viability, T/C [3]: 96.6%
- viability, T/C [4]: 104%
- viability, T/C [5]: 89.5%
- viability, T/C [6]: 82.2%
- viability, T/C [7]: 111%
- viability, T/C [8]: 91.2%
- viability, T/C [9]: 110%
- viability, T/C [10]: 82.1%
- viability, T/C [11]: 106%
- viability, T/C [12]: 71.4%
- viability, T/C [13]: 88.3%
- viability, T/C [14]: 80.2%
- viability, T/C [15]: 98.8%
- viability, T/C [16]: 83.5%
- viability, T/C [17]: 88.1%
- viability, T/C [18]: 75%
- viability, T/C [19]: 81.2%
- viability, T/C [20]: 104%
- viability, T/C [21]: 88.4%
- viability, T/C [22]: 97.5%
- viability, T/C [23]: 81.4%
- viability, T/C [24]: 81.5%
- viability, T/C [25]: 98.7%
- viability, T/C [26]: 89.4%
- viability, T/C [27]: 82.7%
- viability, T/C [28]: 90.9%
- viability, T/C [29]: 91%
- viability, T/C [30]: 92.8%
- viability, T/C [31]: 81.5%
- viability, T/C [32]: 98.4%
- viability, T/C [33]: 90%
- viability, T/C [34]: 95.2%
- viability, T/C [35]: 107%
- viability, T/C [36]: 80.8%
